Assay [1] addresses endogenous CGRP receptor (Homo sapiens, UniProt O60894+Q16602). Put plainly: CGRP functional antagonism using SK-N-MC-BLA (4C10), β-lactamase transcriptional reporter assay. It is filed as cell-based. The settings on record: SK-N-MC (4C10) cells, inhibition of β-lactamase expression in the presence of 200 pM CGRP.
For assay [2], the target named is T1, CGRP receptor (SK-N-MC membrane) (Homo sapiens, UniProt O60894+Q16602).
T1 construct: Purified SK-N-MC membrane was purchased from Perkin Elmer; purchased Perkin Elmer; host or cells: SK-N-MC membrane
T1 sequence (Q16602 23-461): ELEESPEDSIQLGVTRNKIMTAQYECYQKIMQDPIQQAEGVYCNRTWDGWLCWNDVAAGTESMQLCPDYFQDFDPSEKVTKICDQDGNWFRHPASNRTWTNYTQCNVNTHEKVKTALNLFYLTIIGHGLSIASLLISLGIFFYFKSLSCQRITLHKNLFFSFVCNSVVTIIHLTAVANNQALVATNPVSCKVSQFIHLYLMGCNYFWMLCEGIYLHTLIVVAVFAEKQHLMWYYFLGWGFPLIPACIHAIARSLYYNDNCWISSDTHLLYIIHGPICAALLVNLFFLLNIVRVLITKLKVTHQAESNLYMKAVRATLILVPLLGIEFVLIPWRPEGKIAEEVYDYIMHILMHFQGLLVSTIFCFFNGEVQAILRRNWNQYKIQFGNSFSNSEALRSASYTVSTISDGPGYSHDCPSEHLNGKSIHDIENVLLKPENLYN
T1 sequence (O60894 27-148): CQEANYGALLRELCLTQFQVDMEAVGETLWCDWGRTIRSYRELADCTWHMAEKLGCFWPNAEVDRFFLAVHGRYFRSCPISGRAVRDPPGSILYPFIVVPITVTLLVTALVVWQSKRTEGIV
Put plainly: I125-CGRP binding displacement assay on purified SK-N-MC membrane. Summed up: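 Displacement of I125-CGRP binding was measured by filtration and scintillation counting after 2 h room-temperature incubation with compound and SK-N-MC membranes (buffer pH 7.4, MgCl2, BSA, Tween). Percent displacement calculated against total binding and 1 uM cold CGRP nonspecific controls, then curve-fitted.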

A value given as a limit tells only on which side of the number the result lay.

Chain of endogenous CGRP receptor (Q16602 23-461): as the sequence (Q16602 23-461) above
Chain of endogenous CGRP receptor (O60894 27-148): as the sequence (O60894 27-148) above

`CCCCN1C(=O)[C@H](CC(=O)N2CCC(N3CCc4ccccc4NC3=O)CC2)SC1c1cccc(F)c1N1CCN(C(C)(C)C)CC1` (stereo partly shown) [Compound 521]: the IC50 (in general, the concentration at which inhibition is half-maximal) in assay [1] is under 1000 nM. Further, the inhibitory constant (Ki) – broadly, the equilibrium dissociation constant of an inhibitor or competing ligand from its target – in assay [2] was under 1000 nM.

As to `C#CCN1C(=O)C(CC(=O)N2CCC(N3Cc4ccccc4NC3=O)CC2)SC1c1ccccc1` (stereo not shown) [Compound 116], the IC50 in assay [1] lay within 1000 to 5000 nM. This compound also registered an inhibitory constant (Ki) in assay [2] of under 1000 nM.

In the case of `CC(C)CCN1CCC(c2ncc(C3S[C@@H](CC(=O)N4CCC(N5CCc6ccccc6NC5=O)CC4)C(=O)N3CCC(C)(C)C)s2)CC1` (stereo partly shown) [Compound 519], the IC50 in assay [1] was under 1000 nM. For the same compound, the Ki in assay [2] is under 1000 nM.

`CNC1CCN(c2c(F)cccc2[C@@H]2S[C@@H](CC(=O)N3CCC(n4c(=O)[nH]c5ncccc54)CC3)C(=O)N2CCC(C)(C)C)C1` (stereo partly shown) [Compound 459]: the IC50 in assay [1] was under 1000 nM. Moreover, the inhibition constant Ki in assay [2] was under 1000 nM.

On to `CC(C)CCN1C(=O)[C@H](CC(=O)N2CCC(N3Cc4ccccc4NC3=O)CC2)SC1c1ccccn1` (stereo partly shown) [Compound 176], for which the IC50 in assay [1] was in the range of 1000 to 5000 nM. The same compound registered a Ki in assay [2] of under 1000 nM.

Consider `CC(C)CC1SC(CC(=O)N2CCC(N3Cc4ccccc4NC3=O)CC2)C(=O)N1CC(F)(F)F` (stereo not shown) [Compound 226], for which the 50% inhibitory concentration (IC50) in assay [1] lay within 1000 to 5000 nM. For the same compound, the Ki in assay [2] is under 1000 nM.

Take `CC(C)CCN1C(=O)C(CC(=O)N2CCC(N3Cc4ccccc4NC3=O)CC2)SC1c1ccccn1` (stereo not shown) [Compound 266]: the IC50 in assay [1] was under 1000 nM. The compound also gave a Ki in assay [2] of under 1000 nM.

As to `CC(C)(C)CCN1C(=O)[C@H](CC(=O)N2CCC(N3CCc4ccccc4NC3=O)CC2)SC1c1ccccc1N1CCNCC1=O` (stereo partly shown) [Compound 512], the IC50 in assay [1] was under 1000 nM. In assay [2], this compound returned a Ki of under 1000 nM.

Regarding `CC(C)(C)CCN1C(=O)[C@H](CC(=O)N2CCC(N3Cc4ccccc4NC3=O)CC2)S[C@H]1c1cccc(F)c1N1CCC(O)C1` (stereo partly shown) [Compound 469], in assay [1], the IC50 is under 1000 nM. Besides, the inhibition constant Ki in assay [2] is under 1000 nM.

Take `CC(C)CCN1C(=O)C(CC(=O)N2CCC(n3cc(-c4ccccc4)[nH]c3=O)CC2)SC1c1ccc(F)c(F)c1` (stereo not shown) [Compound 127]: the half-inhibitory concentration (IC50) in assay [1] is 1000 to 5000 nM. Further, in assay [2], the Ki is over 5000 nM.

With `Cc1cc(C2SC(CC(=O)N3CCC(N4Cc5ccccc5NC4=O)CC3)C(=O)N2CC2CCCCC2)cc2cn[nH]c12` (stereo not shown) [Compound 145], the half-maximal inhibitory concentration (IC50) in assay [1] is under 1000 nM. In assay [2], the Ki was under 1000 nM.

Consider `CC(C)(C)CCN1C(=O)[C@H](CC(=O)N2CCC(O)(c3ccc(Br)cc3)CC2)SC1c1cccc(F)c1N1CCN(C(C)(C)C)CC1` (stereo partly shown) [Compound 457], for which, in assay [1], the IC50 is under 1000 nM. For the same compound, the Ki in assay [2] was under 1000 nM.

Take `CNC1CCN(c2c(F)cccc2[C@H]2S[C@@H](CC(=O)N3CCC(n4c(=O)[nH]c5ncccc54)CC3)C(=O)N2CCC(C)(C)C)C1` (stereo partly shown) [Compound 458]: in assay [1], the concentration for half-maximal inhibition (IC50) is under 1000 nM. Moreover, in assay [2], the Ki was under 1000 nM.

For `CC(C)CCN1C(=O)C(CC(=O)N2CCC(N3Cc4ccccc4NC3=O)CC2)SC1c1ccccc1Br` (stereo not shown) [Compound 268], the IC50 in assay [1] is under 1000 nM. Also, in assay [2], the Ki was under 1000 nM.

For `CC(C)(C)CCN1C(=O)C(CC(=O)N2CCC(N3Cc4ccccc4NC3=O)CC2)SC1c1ccccc1` (stereo not shown) [Compound 93], the IC50 in assay [1] was under 1000 nM. In assay [2], the Ki was under 1000 nM.

Turning to `CC(C)OCCN1C(=O)[C@H](CC(=O)N2CCC(N3CCc4ccccc4NC3=O)CC2)SC1c1cccc(F)c1N1CCN(C(C)(C)C)CC1` (stereo partly shown) [Compound 529], the IC50 in assay [1] is under 1000 nM. This compound yielded a Ki in assay [2] of under 1000 nM.

Take `CC(C)CN1C(=O)[C@H](CC(=O)N2CCC(N3CCc4ccccc4NC3=O)CC2)SC1c1cccc(F)c1N1CCN(C(C)(C)C)CC1` (stereo partly shown) [Compound 493]: in assay [1], the IC50 was under 1000 nM. This compound also registered a Ki in assay [2] of under 1000 nM.

With `CC(C)(C)N1CCN(c2c(F)cccc2C2S[C@@H](CC(=O)N3CCC(n4c(=O)[nH]c5ncccc54)CC3)C(=O)N2CC2CCCCC2)CC1` (stereo partly shown) [Compound 516], in assay [1], the half-maximal inhibitory concentration (IC50) was under 1000 nM. The Ki in assay [2] is under 1000 nM.

Consider `O=C(CC1SC(c2ccccc2)N(CC2CCCO2)C1=O)N1CCC(N2Cc3ccccc3NC2=O)CC1` (stereo not shown) [Compound 113], for which the IC50 in assay [1] is under 1000 nM. This compound returned an inhibitory constant (Ki) in assay [2] of under 1000 nM.

Take `Cc1cccc(C2SC(CC(=O)N3CCC(N4Cc5ccccc5NC4=O)CC3)C(=O)N2CCC(C)C)c1` (stereo not shown) [Compound 41]: the 50% inhibitory concentration (IC50) in assay [1] was under 1000 nM. For the same compound, the Ki in assay [2] is under 1000 nM.

As to `CC(C)OCCN1C(=O)[C@H](CC(=O)N2CCC(N3CCc4ccccc4NC3=O)CC2)SC1c1cccc(F)c1N1CCN(C(C)(C)C)CC1` (stereo partly shown) [Compound 526], the IC50 in assay [1] is under 1000 nM. In assay [2], the inhibitory constant (Ki) was under 1000 nM.

As for `CC(C)(C)N1CCN(c2c(F)cccc2C2S[C@@H](CC(=O)N3CCC(N4CCc5ccccc5NC4=O)CC3)C(=O)N2Cc2ccccc2)CC1` (stereo partly shown) [Compound 539], the IC50 in assay [1] was under 1000 nM. Besides, in assay [2], the Ki was under 1000 nM.

Turning to `CC(C)(C)CCN1C(=O)C(CC(=O)N2CCC(n3c(=O)[nH]c4ccccc43)CC2)SC1c1ccccc1-n1ccnc1` (stereo not shown) [Compound 295], the half-maximal inhibitory concentration (IC50) in assay [1] is under 1000 nM. In assay [2], this compound yielded an inhibition constant (Ki) of under 1000 nM.

On to `CC(C)(C)N1CCN(c2c(F)cccc2C2S[C@@H](CC(=O)N3CCC(n4c(=O)[nH]c5ncccc54)CC3)C(=O)N2CCc2ccccc2)CC1` (stereo partly shown) [Compound 509], for which the concentration for half-maximal inhibition (IC50) in assay [1] is under 1000 nM. Moreover, the Ki in assay [2] was under 1000 nM.

For the compound `CCCCN1C(=O)C(CC(=O)N2CCC(N3Cc4ccccc4NC3=O)CC2)SC1c1ccccc1` (stereo not shown) [Compound 107], the concentration for half-maximal inhibition (IC50) in assay [1] is under 1000 nM. Moreover, in assay [2], the inhibition constant Ki was under 1000 nM.

`CC(C)(C)CCN1C(=O)C(CC(=O)N2CCC(N3CCc4ccccc4NC3=O)CC2)SC1c1ccccc1` (stereo not shown) [Compound 8]: the IC50 in assay [1] was under 1000 nM. The Ki in assay [2] was under 1000 nM.

For the compound `O=C(CC1SC(c2ccccc2)N(CC2CC2)C1=O)N1CCC(N2Cc3ccccc3NC2=O)CC1` (stereo not shown) [Compound 271], the 50% inhibitory concentration (IC50) in assay [1] is under 1000 nM. Besides, the inhibitory constant (Ki) in assay [2] was under 1000 nM.

In the case of `CC(C)CCN1C(=O)C(CC(=O)N2CCC(N3Cc4ccccc4NC3=O)CC2)SC1c1ccccc1` (stereo not shown) [Compound 12], in assay [1], the IC50 is under 1000 nM. In assay [2], this compound registered a Ki of under 1000 nM.

Turning to `CC(C)(C)CCN1C(=O)C(CC(=O)N2CCC(N3CCc4ccccc4NC3=O)CC2)SC1c1ccccc1-n1cccn1` (stereo not shown) [Compound 88], the IC50 in assay [1] was under 1000 nM. The compound also yielded a Ki in assay [2] of under 1000 nM.

Regarding `CC(C)(C)CCN1C(=O)[C@H](CC(=O)N2CCC(N3CCc4ccccc4NC3=O)CC2)SC1c1cccc(F)c1N1CC[C@@H](O)C1` (stereo partly shown) [Compound 487], in assay [1], the IC50 is under 1000 nM. The Ki in assay [2] is under 1000 nM.

As for `N#Cc1ccccc1C1SC(CC(=O)N2CCC(N3Cc4ccccc4NC3=O)CC2)C(=O)N1CC1CCCCC1` (stereo not shown) [Compound 265], in assay [1], the IC50 was under 1000 nM. Besides, in assay [2], the inhibition constant (Ki) is under 1000 nM.

Consider `CC(C)(C)CCN1C(=O)[C@H](CC(=O)N2CCC(n3c(=O)[nH]c4ncccc43)CC2)SC1c1cccc(F)c1N1CCN(C(=O)OC(C)(C)C)CC1` (stereo partly shown) [Compound 549], for which the IC50 in assay [1] lay in the range of 1000 to 5000 nM. For the same compound, in assay [2], the Ki was under 1000 nM.

Regarding `CC(C)CN1C(=O)C(CC(=O)N2CCC(N3Cc4ccccc4NC3=O)CC2)SC1c1ccccc1` (stereo not shown) [Compound 9], the 50% inhibitory concentration (IC50) in assay [1] was under 1000 nM. In addition, the Ki in assay [2] is under 1000 nM.

For the compound `COCCN1C(=O)[C@H](CC(=O)N2CCC(N3CCc4ccccc4NC3=O)CC2)SC1c1cccc(F)c1N1CCN(C(C)(C)C)CC1` (stereo partly shown) [Compound 533], the IC50 in assay [1] was under 1000 nM. The compound further returned a Ki in assay [2] of under 1000 nM.

Consider `CN1CCN(c2ccccc2C2SC(CC(=O)N3CC(N4Cc5ccccc5NC4=O)C3)C(=O)N2CCC(C)(C)C)CC1` (stereo not shown) [Compound 477], for which the IC50 in assay [1] is over 5000 nM. The inhibition constant Ki in assay [2] is under 1000 nM.

The values above are taken from patent US8163737B2 (Vertex Pharmaceuticals Incorporated, priority 2006, dated 2012).
